The first assay concerns the target T1, Thromboxane A2 receptor (Homo sapiens, UniProt P21731).
T1 sequence (P21731 whole entry): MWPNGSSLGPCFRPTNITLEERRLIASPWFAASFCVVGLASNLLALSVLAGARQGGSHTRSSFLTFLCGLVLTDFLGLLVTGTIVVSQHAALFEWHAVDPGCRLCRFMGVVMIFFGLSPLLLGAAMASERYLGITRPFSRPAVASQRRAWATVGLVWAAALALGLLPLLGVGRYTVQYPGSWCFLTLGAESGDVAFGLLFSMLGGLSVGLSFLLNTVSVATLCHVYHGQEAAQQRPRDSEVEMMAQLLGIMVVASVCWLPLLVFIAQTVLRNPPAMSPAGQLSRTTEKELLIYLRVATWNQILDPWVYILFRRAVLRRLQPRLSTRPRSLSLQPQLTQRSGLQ
Put plainly: ChEBML_209427. The text has this: Inhibitory activity against U-46,619-induced responses in human platelet aggregation (Thromboxane A2 alpha receptor)
In turn, `COc1cc(CC2NCCc3c(F)c(O)c(O)c(F)c32)cc(OC)c1OC` (stereo unspecified) [TMQ, 5,8-Difluoro] yielded an IC50 of 158 µM.

On to `COc1cc(CC2NCCc3cc(O)c(O)c(I)c32)cc(OC)c1OC` (stereo unspecified) [TMQ, 8-Iodo], for which half-maximal inhibition (IC50) required 3.09 µM.

Turning to `COc1cc(CC2NCCc3c2cc(O)c(O)c3C(F)(F)F)cc(OC)c1OC` (stereo unspecified) [TMQ, 5-TrifluoroMe], the IC50 amounted to 832 µM.

`COc1cc(CC2NCCc3c2cc(O)c(O)c3I)cc(OC)c1OC` (stereo unspecified) [TMQ, 5-Iodo]: 120 µM corresponded to half-maximal inhibition (IC50). This IC50 is about 6.9-fold lower than that of the molecule before.

Molecular target in the next assay: not listed separately
Put plainly: Inhibitory activity against U-46,619-induced responses in human platelet aggregation (Thromboxane A2 alpha receptor).
The molecule `COc1cc(C[C@@H]2NCCc3cc(O)c(O)c(F)c32)cc(OC)c1OC` [TMQ, S-(+)-8-Fluoro] displayed an IC50 of 39.8 µM.

With `COc1cc(C[C@H]2NCCc3cc(O)c(O)c(F)c32)cc(OC)c1OC` [TMQ, R-(-)-8-Fluoro], half-maximal inhibition (IC50) was put at 2.46 µM.

What is called IC50 is the concentration that inhibits the measured activity by half. Low values mean inhibition by little substance, high ones a need for much substance.

For the origin of these results see BindingDB's records for doi:10.1021/jm00081a007 (Ohio State University, 1992).
